Tests used:
cMyc = cMyc depletion in MV4;11 (immunoblot); assay type: cell-based; conditions: 50 nM, 4 h
[1] = target: VHL-EloC-EloB protein (VCB) (Homo sapiens, UniProt P40337); assay: ITC binary titration, VCB into PROTAC; assay type: binding; conditions: VCB in syringe, PROTAC in cell
Brd4 [2] = target: T1, Brd4 (Homo sapiens, UniProt O60885); assay: Brd4 depletion in MV4;11 (immunoblot); assay type: cell-based; conditions: 50 nM, 4 h
T1 construct: endogenous in cells; host or cells: MV4;11; HL60

[3] = target: VCB / Brd4^BD2 ternary complex (Homo sapiens, UniProt O60885+P40337); assay: ITC ternary titration, VCB into Brd4^BD2–PROTAC complex; assay type: binding; conditions: for α: cooperativity, ratio between binary and ternary Kd; for α / ΔpKd ± uncertainty: Brd4^BD2; for cooperativity (α) Brd4–BD2: ternary complex formation with VCB and Brd4^BD2, as tabulated in Table 2; for ΔpKd ± uncertainty: ternary vs binary; for stoichiometry N / ΔG / ΔH / –TΔS: ternary, VCB in syringe, Brd4^BD2–PROTAC in cell
Brd4^BD2 = Brd4^BD2 (Homo sapiens, UniProt O60885); assay: ITC binary titration, Brd4^BD2 into PROTAC; assay type: binding; conditions: Brd4^BD2 in syringe, PROTAC in cell
Brd4 [4] = target: T1, Brd4; assay: Brd4 depletion in HL60 (immunoblot); assay type: cell-based; conditions: 50 nM, 4 h, HL60
Brd4 tandem bromodomain = conditions: cited from earlier work
MV4;11 cells = assay: Cell viability assay (CellTiter-Glo), MV4;11; assay type: cell-based; conditions: Homo sapiens, antiproliferative, 48 h treatment, error = quality of curve fitting, read-out: pEC50 MV4;11 (converted)

stoichiometry N [1] | ΔG [1] | ΔH [1] | –TΔS [1] | Brd4 depletion (%) MV4;11 (Brd4 [2]) | α [3] | cooperativity (α) Brd4–BD2 [3] | ΔpKd ± uncertainty [3] | stoichiometry N [3] | ΔG [3] | ΔH [3] | –TΔS [3] | stoichiometry N (Brd4^BD2) | ΔG (Brd4^BD2) | ΔH (Brd4^BD2) | –TΔS (Brd4^BD2) | Brd4 depletion (%) HL60 (Brd4 [4]) | EC50 (MV4;11 cells) | Compound | cMyc depletion (%) MV4;11 (cMyc) | Kd (Brd4 tandem bromodomain)
1.12 ± 0.01 | –9.46 ± 0.13 kcal·mol^–1 | –4.07 ± 0.07 kcal·mol^–1 | –5.39 ± 0.14 kcal·mol^–1 | 11/11% | 0.2 | 0.15 | –0.83 ± 0.10 | 1.07 ± 0.01 | –8.33 ± 0.05 kcal·mol^–1 | –7.02 ± 0.11 kcal·mol^–1 | –1.31 ± 0.12 kcal·mol^–1 | 0.804 ± 0.003 | –11.7 ± 0.4 kcal·mol^–1 | –10.0 ± 0.1 kcal·mol^–1 | –1.71 ± 0.43 kcal·mol^–1 | –156% | – | CC(=O)N1c2ccc(-c3ccc(C(=O)NCCOCCOCC(=O)N[C@H](C(=O)N4C[C@H](O)C[C@H]4C(=O)NCc4ccc(-c5scnc5C)cc4)C(C)(C)C)cc3)cc2[C@H](Nc2ccc(Cl)cc2)C[C@@H]1C [compound 8, (2S,4R)-1-((S)-1-(4-((2S,4R)-1-Acetyl-4-((4-chlorophenyl)amino)-2-methyl-1,2,3,4-tetrahydroquinolin-6-yl)phenyl)-12-(tert-butyl)-1,10-dioxo-5,8-dioxa-2,11-diazatridecan-13-oyl)-4-hydroxy-N-(4-(4-methylthiazol-5-yl)benzyl)pyrrolidine-2-carboxamide] | 11/11% | –
– | – | – | – | – | – | – | – | – | – | – | – | – | – | – | – | –157% | – | CC(=O)N1c2ccc(-c3ccc(C(=O)O)cc3)cc2[C@H](Nc2ccc(Cl)cc2)C[C@@H]1C [compound 4] | – | 4 nM
0.76 ± 0.03 | –9.75 ± 0.13 kcal·mol^–1 | –8.79 ± 0.42 kcal·mol^–1 | –0.96 ± 0.29 kcal·mol^–1 | – | 4.7 | 4.7 | 0.66 ± 0.10 | 0.76 ± 0.07 | –10.7 ± 0.05 kcal·mol^–1 | –10.6 ± 1.3 kcal·mol^–1 | –0.07 ± 1.3 kcal·mol^–1 | 0.79 ± 0.03 | –10.3 ± 0.04 kcal·mol^–1 | –10.6 ± 0.5 kcal·mol^–1 | 0.31 ± 0.53 kcal·mol^–1 | – | 123 nM | Cc1ncsc1-c1ccc(CNC(=O)[C@@H]2C[C@@H](O)CN2C(=O)[C@@H](NC(=O)COCCOCCOCCOCCNC(=O)C[C@@H]2N=C(c3ccc(Cl)cc3)c3c(sc(C)c3C)-n3c(C)nnc32)C(C)(C)C)cc1 [compound 7] | – | –

Source: PMC5788402, “Impact of Target Warhead and Linkage Vector on Inducing Protein Degradation: Comparison of Bromodomain and Extra-Terminal (BET) Degraders Derived from Triazolodiazepine (JQ1) and Tetrahydroquinoline (I-BET726) BET Inhibitor Scaffolds” (Journal of Medicinal Chemistry, 2017)
